Assay results reported in US20260263552A1, “PHARMACEUTICAL COMPOSITIONS FOR IMPROVING ORAL BIOAVAILABILITY” (priority 2023, published 2026).

What was measured:
[1] = Oral absorption / pharmacokinetics of Compound (I) formulations in cynomolgus monkeys; format: in vivo; details: cyno monkeys
Procedure: An aqueous suspension of […] was prepared at 10% solid content. […] Six enteric coated tablets were encapsulated in a size #00 hard gelatin capsule for the cyno PK study. Each cyno monkey was dosed with 2 capsules (12 enteric coated tablets). […] The mean exposure is shown in FIG. 1 with error bars showing the standard deviation.

[2] = Dog pK study (Example 5E), effect of sodium decanoate amount and number of tablets, 100 mg dose; set-up: species or system dogs; details: in vivo, iv, 10 mg
Procedure: Blood samples were withdrawn over a period of 72 hours. […] Error bars describe standard deviation. […] Decreasing the amount of sodium decanoate decreased PK exposure at 330 mg of sodium decanoate. […] Table 12 summarizes all of the PK data for all the formulations tested in Example 5.

[3] = Dog pK study (Example 4), 20 mg dose; set-up: species or system dogs; details: in vivo, iv, 10 mg
[4] = 0.1 mg/kg IV (0.5 mg), reference

AUC0-24 h (nM · h) Mean ([1]; 0.1 mg/kg IV (0.5 mg)): 47.61351 µM·h
AUCinf (nM · h) Mean ([1]; 0.1 mg/kg IV (0.5 mg)): 51.96595 µM·h
Cmax ([1]; 0.1 mg/kg IV (0.5 mg)): 798 nM
BA (%) Mean [1, 4]: 100.00%
BA (%) using AUCInf Mean [1, 4]: 100.00%
plasma concentration of Compound (I) over time ([1]; oral, 12 mg, formulated as in Example 1, 72 hours): good plasma concentration
AUCinf (ng · h/mL) Mean [2]: 1198.53803 µg·h/mL
Cmax (ng/mL) Mean [2]: 25466.29 ng/mL
AUCinf (ng · h/mL) Mean [3]: 1198.53803 µg·h/mL
Cmax (ng/mL) Mean [3]: 25466.29 ng/mL
Structure (SMILES): CCCC[C@H]1C(=O)N(C)[C@@H](CCCC)C(=O)N[C@@H](CC(C)C)C(=O)N[C@H](C(=O)NCC(=O)N[C@@H](Cc2cn(CCOCCOCCCOCCCOCCOCCOCCOCCOCCOCCOCCOCCNC(=O)CC[C@H](NC(=O)CCCCCCCCCCCCCCCCC(=O)O)C(=O)O)nn2)C(=O)O)CSCC(=O)N[C@@H](Cc2ccc(O)cc2)C(=O)N(C)[C@@H](C)C(=O)N[C@@H](CC(N)=O)C(=O)N2CCC[C@H]2C(=O)N[C@@H](CN)C(=O)N[C@@H](CC(C)C)C(=O)N2C[C@H](O)C[C@H]2C(=O)N[C@@H](Cc2c[nH]c3ccccc23)C(=O)N[C@@H](CCN)C(=O)N[C@@H](Cc2cn(CC(=O)O)c3ccccc23)C(=O)N1C [Compound (I)]
